Results from patent US12636342B2, “TARS derived from Akkermansia muciniphila or fragment thereof, and use thereof” (KOREA RESEARCH INSTITUTE OF BIOSCIENCE AND BIOTECHNOLOGY, priority 2020, dated 2026).
Blank lines part the entries; values can stand above or below the molecule they belong to.

Key:
BMDMs = test: AmTARS-stimulated BMDMs pre-treated with kinase/CREB inhibitors; type: cell-based, mouse; conditions: for IL-10 production by AmTARS: BMDMs pre-treated 1 h with inhibitor (10 μM; 666-15 1 μM) before AmTARS 24 h; for macrophage polarization (CD206 positive) by AmTARS: BMDMs pre-treated 1 h with inhibitor before AmTARS 24 h
Description: (A and B) Analysis of key molecules that inhibit the MAPK and PI3K/AKT signaling pathways. IL-10 produced by BMDMs pre-treated with inhibitors of ERK (PD98059, […]), p38 (SB203580, […]), MSK1/2 (SB747651A, 10 μM), CREB (666-15, 1 μM), PI3K (Wortmannin, 10 μM), and AKT1/2 (AKT1/2, 10 μM) for 1 h before treatment with either PBS or AmTARS for 24 h (n=6 per group) (A). Flow cytometry analysis of M2 macrophages in BMDMs pre-treated for 1 h with the indicated kinase inhibitors, before treatment with either PBS or AmTARS for 24 h (n=3 per group) (B). (C and D) Western blot analysis of MAPK signaling molecules in lysates of BMDMs (C) or THP1 cells (D) treated for different times with 0.5 μM AmTARS. (E) Western blot analysis of lysates of BMDMs pre-treated with α-IgG (Isotype, 1 μg ml-1) or α-TLR2 (1 μg ml-1) for 1 h before treatment with PBS, AmTARS (0.5 μM), or Pam3 (0.5 μM) for 30 min. (F and G) Western blot analysis of PI3K/AKT signaling molecules in lysates of BMDMs (F) or THP1 cells (G) treated with 0.5 μM AmTARS. […] Activation of AKT, ERK, and CREB was measured by western blot analysis of lysates of THP1 cells pre-treated with α-IgG, α-TLR1, α-TLR2, or α-TLR6 (1 μg ml-1) for 1 h before treatment for 30 min with PBS or AmTARS (0.5 µM). […] P-values were calculated using an unpaired two-tailed Student's t-test. Data shown in (C-H) are representative and repeated at least three times.
To identify the signaling pathway triggered by AmTARS, we first evaluated kinases and CREB. IL-10 production and M2 polarization were measured in BMDMs treated with inhibitors of ERK (PD98059), p38 (SB203580), MSK1/2 (SB747651A), CREB (666-15), PI3K (Wortmannin) and AKT (AKT1/2) before subsequent stimulation with AmTARS.

[1] = system: mouse bone marrow-derived macrophages (BMDMs); test: ELISA of immune cytokine secretion in LPS-treated BMDMs (inflammatory environment); type: cell-based
Description: To determine whether AmTARS affects immune cytokine secretion when cellular inflammation was induced, mouse bone marrow-derived macrophages BMDMs as mouse-derived immune cells and human macrophages THP1 as human-derived immune cells were cultured by way of the same method as in Example 2.
Specifically, the cultured BMDMs and THP1 were treated with lipopolysaccharide (LPS) to induce an inflammatory response and were simultaneously treated with AmTARS at 0.1 μM, 0.2 μM, and 0.5 μM for 24 h to obtain cell cultures. The obtained cell cultures were analyzed for immune cytokine secretion by way of the same method as in Example 2.
Next, BMDMs were treated with LPS to create an inflammatory environment by way of the same method as in Example 3, and then treated with each TARS (AmTARS, BfTARS, eTARS, and hTARS) to investigate the secretion of IL-10.
An inflammatory environment was created through LPS in BMDMs by way of the same method as in Example 3, and then the cells were treated with the four types of fragments, and the immune cytokine secretion was determined by ELISA.

[2] = system: mouse bone marrow-derived macrophages (BMDMs); test: ELISA of immune cytokine secretion in BMDMs under normal conditions; type: cell-based; conditions: normal (non-inflammatory) conditions, 24 h
Description: Specifically, mouse bone marrow-derived macrophages (BMDMs) as mouse-derived immune cells were extracted from the mouse thighbone and shinbone, and then cultured in DMEM containing 10% fetal bovine serum (FBS) and antibiotics. Human macrophages (THP1) as human-derived immune cells were cultured in RPMI media containing 10% FBS and antibiotics.
The cultured cells were treated with AmTARS at 0.1 μM, 0.2 μM, and 0.5 μM for 24 h to obtain cell cultures. For cell removal, the media were centrifuged at 500×g for 10 min to obtain supernatants, which were then analyzed using an ELISA set (mouse interleukin (IL)-6, mouse IL-10, mouse tumor necrosis factor (TNF)-α, human IL-6, human IL-10, human TNF-α; BD Biosciences) to investigate the secretion of mouse- and human-derived immune cytokines. […]

[3] = Aminoacylation reaction (malachite green phosphate assay); type: biochemical; conditions: L-threonine, ATP, 30 min, free Pi at 620 nm
Description: TARS is an […] involved in protein synthesis, and the domain and site involved in its function are well known. The constructed deletion mutants were confirmed to have deletions of parts irrelevant to the function, but the aminoacylation reaction experiment was conducted to determine whether the deletion mutants performed the intrinsic functions thereof appropriately.
Specifically, a 2× reaction solution (100 mM Tris-HCl (pH 7.5), 20 mM MgCl2, 200 mM NaCl, 200 mM KCl, 2 mM DTT, 500 μM ATP, and 5 mM L-threonine) was prepared, and 25 μL of a reaction solution, 20 μL of distilled water, and 5 μL of protein were added to make a final 50 μL volume, followed by incubation for 30 min. Thereafter, a reaction was conducted using a malachite green phosphate assay kit (Bioassay Systems) for 30 min, and the free monophosphate group (Pi) was measured at a wavelength of 620 nm.

[4] = LPS-induced inflammatory environment, 24 h

Molecule: O=c1[nH]c2ccccc2n1C1CCN(Cc2ccc(-c3nc4cc5[nH]cnc5cc4nc3-c3ccccc3)cc2)CC1 [AKT1/2]
IL-10 production by AmTARS (BMDMs): significant suppression | macrophage polarization (CD206 positive) by AmTARS (BMDMs): significant suppression

IL-10 production by AmTARS (BMDMs): significant suppression | macrophage polarization (CD206 positive) by AmTARS (BMDMs): significant suppression
Molecule: CCn1c(-c2nonc2N)nc2cncc(CNC3CCNCC3)c21 [SB747651A]

IL-10 production by AmTARS (BMDMs): significant suppression | macrophage polarization (CD206 positive) by AmTARS (BMDMs): significant suppression
Molecule: COc1cccc(-c2cc(=O)c3ccccc3o2)c1N [PD98059]

Molecule: C[S+]([O-])c1ccc(-c2nc(-c3ccncc3)c(-c3ccc(F)cc3)[nH]2)cc1 (stereo not shown) [SB203580]
IL-10 production by AmTARS (BMDMs): significant suppression | macrophage polarization (CD206 positive) by AmTARS (BMDMs): significant suppression

Molecule: R2: Functional site 2 peptide, SEQ ID NO: 4, residues 290-312 of SEQ ID NO: 1 (KLSQEGASCAELFNGLATGTIEG; Functional region 2(290˜312))
secretion of IL-6 ([1]; LPS, peptide 100 μM): reduced | secretion of IL-10 ([1]; LPS, peptide 100 μM): increased | secretion of IL-6 ([1]; LPS, peptide 300 μM): reduced | secretion of IL-10 ([1]; LPS, peptide 300 μM): increased | secretion of IL-6 [1, 4]: reduced | secretion of IL-10 [1, 4]: increased

B1: BfTARS: TARS derived from Bacteroides fragilis (protein)
chain: MIKITFPDGSVREYNEGVNGLQIAESISSRLAQDVLACGVNGEIYDLGRPINEDASVVLYKWEDEQGKHAFWHTSAHLLAEALQELYPGIQFGIGPAIENGFYYDVDPGEAVIKEADLPAIEAKMAELVAKKEAVVRRDIAKGDALKMFGDRGETYKCELISELEDGHITTYTQGDFTDLCRGPHLMTTAPIKAIKLTSVAGAYWRGHEDRKMLTRIYGITFPKKKMLDEYLALMEEAKKRDHRKIGKEMQLFMFSDTVGKGLPMWLPKGTALRLRLQDFLRRIQTRYDYQEVITPPIGNKLLYVTSGHYAKYGKDAFQPIHTPEEGEEYFLKPMNCPHHCEIYKNFPRSYKDLPLRIAEFGTVCRYEQSGELHGLTRVRSFTQDDAHIFCRPDQVKGEFLRVMDIISIVFRSMDFDNFEAQISLRDKVNREKYIGSDENWEKAEQAIIEACEEKGLKAKIEYGEAAFYGPKLDFMVKDAIGRRWQLGTIQVDYNLPERFELEYMGSDNQKHRPVMIHRAPFGSMERFVAVLIEHTAGKFPLWLTPEQVVILPISEKFNEYAEKVKTYLKMKEIRAIVDDRNEKIGRKIRDNEMKRIPYMLIVGEKEAENGEVSVRRQGEGDKGTMKFEEFGEILNEEVQNMINKW
modifications: 6xHis tag; misc_feature 1..1941 Bacteroides fragilis TARS
secretion of IL-10 [1, 4]: not significantly increased

B2: hTARS: TARS derived from Homo sapiens (protein)
chain: MFEEKASSPSGKMGGEEKPIGAGEEKQKEGGKKKNKEGSGDGGRAELNPWPEYIYTRLEMYNILKAEHDSILAEKAEKDSKPIKVTLPDGKQVDAESWKTTPYQIACGISQGLADNTVIAKVNNVVWDLDRPLEEDCTLELLKFEDEEAQAVYWHSSAHIMGEAMERVYGGCLCYGPPIENGFYYDMYLEEGGVSSNDFSSLEALCKKIIKEKQAFERLEVKKETLLAMFKYNKFKCRILNEKVNTPTTTVYRCGPLIDLCRGPHVRHTGKIKALKIHKNSSTYWEGKADMETLQRIYGISFPDPKMLKEWEKFQEEAKNRDHRKIGRDQELYFFHELSPGSCFFLPKGAYIYNALIEFIRSEYRKRGFQEVVTPNIFNSRLWMTSGHWQHYSENMFSFEVEKELFALKPMNCPGHCLMFDHRPRSWRELPLRLADFGVLHRNELSGALTGLTRVRRFQQDDAHIFCAMEQIEDEIKGCLDFLRTVYSVFGFSFKLNLSTRPEKFLGDIEVWDQAEKQLENSLNEFGEKWELNSGDGAFYGPKIDIQIKDAIGRYHQCATIQLDFQLPIRFNLTYVSHDGDDKKRPVIVHRAILGSVERMIAILTENYGGKWPFWLSPRQVMVVPVGPTCDEYAQKVRQQFHDAKFMADIDLDPGCTLNKKIRNAQLAQYNFILVVGEKEKISGTVNIRTRDNKVHGERTISETIERLQQLKEFRSKQAEEEF
modifications: 6xHis tag; misc_feature 1..2175 Homo sapiens TARS
secretion of IL-10 [1, 4]: not significantly increased

B3: eTARS: TARS derived from E. coli (protein)
chain: MPVITLPDGSQRHYDHAVSPMDVALDIGPGLAKACIAGRVNGELVDACDLIENDAQLSIITAKDEEGLEIIRHSCAHLLGHAIKQLWPHTKMAIGPVIDNGFYYDVDLDRTLTQEDVEALEKRMHELAEKNYDVIKKKVSWHEARETFANRGESYKVSILDENIAHDDKPGLYFHEEYVDMCRGPHVPNMRFCHHFKLMKTAGAYWRGDSNNKMLQRIYGTAWADKKALNAYLQRLEEAAKRDHRKIGKQLDLYHMQEEAPGMVFWHNDGWTIFRELEVFVRSKLKEYQYQEVKGPFMMDRVLWEKTGHWDNYKDAMFTTSSENREYCIKPMNCPGHVQIFNQGLKSYRDLPLRMAEFGSCHRNEPSGSLHGLMRVRGFTQDDAHIFCTEEQIRDEVNGCIRLVYDMYSTFGFEKIVVKLSTRPEKRIGSDEMWDRAEADLAVALEENNIPFEYQLGEGAFYGPKIEFTLYDCLDRAWQCGTVQLDFSLPSRLSASYVGEDNERKVPVMIHRAILGSMERFIGILTEEFAGFFPTWLAPVQVVIMNITDSQSEYVNELTQKLSNAGIRVKADLRNEKIGFKIREHTLRRVPYMLVCGDKEVESGKVAVRTRRGKDLGSMDVNEVIEKLQQEIRSRSLKQLEE
modifications: 6xHis tag; misc_feature 1..1929 Escherichia coli TARS
secretion/production of IL-10 [2]: no anti-inflammatory immune function | secretion of IL-10 [1, 4]: not significantly increased

B4: Akkermansia muciniphila-derived YARS (protein)
chain: MTIDEQLDILMGGTAVVISREELKERLKLGRPLRVKLGVDPTAPDIHLGHTVAIEKLRQFQELGHQAVLLIGDFTATIGDPSGRSVTRPPLSREQVLENAETYTKQAFKILDRDKTEIVYNGDWFRKMTYEEVLKLNSRVTMQQMLAREDFKARVEGGKEVRLHEMQYPIMQGWDSVEIRADVELGGTDQLFNILVGRDLQKEEGMLPQIAMTMPLLEGLDGVRKMSKSYGNYVGVDESPEMMFGKMMSASDELMDRYYLVLLGEKRDMGLHPMEAKKLLAWKITARYHDSAAADAARSDWETRFSKRDLAAADLPEVEIASLPADMNALALVSFLFENVFQVKKSNGVLRKEHFTPGAIQLNDVKMTDPSAVLELAPGSILRLSKKHAVRFK
modifications: 6xHis tag; misc_feature 1..1182 Akkermansia muciniphila YARS
notes: Akkermansia muciniphila tyrosyl-tRNA synthetase, used as control
aminoacylation reaction / enzymatic activity [3]: no reaction
